One data set deals with Ucp3. Put plainly: Immunoblot of Ucp3 in TA muscle after ASO injection. It is filed as in vivo, mouse. Particulars: TA muscles. An excerpt:
(§1) To investigate miR-133 function in brown adipose determination of satellite cells in vivo, Applicant synthesized miR-133 antagomiR (miR-133 antisense oligonucleotide (ASO)) with an antisense sequence to both miR-133a and miR-133b, as well as a control “antagomiR” (control ASO) with the same chemical modifications and not antisense to any mouse gene or EST sequence (see Experimental Procedures). Applicant performed lineage tracing to distinguish effects of miR-133 ASO on satellite cells versus other cell types. Six week old Pax7-CreER; R26R-tdTomato mice were treated with tamoxifin as before (5 consecutive daily injections), then aged to 10 weeks of age prior to initiating the experiment. Control ASO versus miR-133 ASO were injected into tibialis anterior (TA) muscles 3 days following saline injection (quiescent state) or cardiotoxin injection (to induce activation). After one month, RT-qPCR was performed using RNA isolated from several tissues to evaluate the efficacy and scope of miR-133 ASO administration.
(§2) To induce brown adipocytes in vivo, 10 mg/mL Cardiotoxin solution (50 μl) was intramuscularly injected into TA muscles of 10-week old Pax7-CreER/R26R-tdTomato mice (FIG. 4) or C57BL/6 mice (FIG. 5 and FIG. 6). Alternatively, frozen injury was performed by applying liquid nitrogen cooled tweezers tips directly onto the anterior sides of TA muscles. […]
Background: In western blotting, separated proteins are transferred to a membrane and probed.

A further data set relates to IL-1β and TNF-α. The conditions noted are these: mouse, in vivo.
The test system of another data set is Ucp1. Put plainly: Induction of Ucp1 and brown adipocytes in TA muscle (RT-qPCR, immunoblot, immunofluorescence, IHC). It is filed as in vivo, mouse.
Description: as §1
To investigate whether miR-133 ASO was inducing satellite cells to undergo brown adipose determination in vivo, Applicant performed immunofluorescence microscopy on cross-sections prepared from regenerating TA muscles treated with control- or miR-133 ASO (FIG. 4C-D) Staining for Ucp1 and basal lamina-located Laminin confirmed Ucp1 staining only within miR-133 ASO treated regenerating muscles. […] In addition, Applicant observed that these interstitial cells were immunoreactive to Perilipin A, a marker for differentiated adipocytes, and nuclear Prdm16 (FIG. 4D).
To induce brown adipocytes in vivo, 10 mg/mL Cardiotoxin solution (50 μl) was intramuscularly injected into TA muscles of 10-week old Pax7-CreER/R26R-tdTomato mice (FIG. 4) or C57BL/6 mice (FIG. 5 and FIG. 6). Alternatively, frozen injury was performed by applying liquid nitrogen cooled tweezers tips directly onto the anterior sides of TA muscles. After 3 days, 20 μg of miR-133 antagomiR or control antagomiR in saline (50 μl) was intramuscularly injected into the same injured TA muscles (on right hindlimbs). To test efficacy of miR-133 ASO in intact muscles, saline, instead of Cardiotoxin, was injected to TA muscles before miR-133 ASO administration (FIGS. 4A, 4B). miR-133 antagomiR and scramble antagomiR were designed as previously described (Krutzfeldt et al., 2005).
The following antibodies and dilutions were used: anti-MyHC antibody (MF20, Developmental Studies Hybridoma Bank), 1:20 dilution; anti-Prdm16 antibody (generated in Dr. Patrick Seale's laboratory), 1:1,000 dilution; anti-Perilipin A antibody (Vala Sciences), 1:500 dilution; anti-Ucp1 antibody (Calbiochem), 1:200 dilution; anti-Laminin B2 antibody (Upstate), 1:500 dilution.
The following antibodies and dilutions were used: anti-Prdm16 antibody (generated in Dr. Patrick Seale's laboratory), 1:5,000 dilution; anti-Perilipin A antibody (Vala Sciences), 1:5,000 dilution; anti-Ucp1 antibody (Ab10983, Abeam), 1:1,000 dilution (FIGS. 4B, 5A, 7A); anti-Ucp1 antibody (Calbiochem), 1:1,000 dilution (FIG. 8C); anti-Ucp3 antibody (Ab3477, Abeam), 1:1,000 dilution; anti-Pgc1α antibody (Abeam), 1:1,000 dilution; anti-pan myosin heavy chain (MyHC) antibody (Developmental Studies Hybridoma Bank), 1:500; anti-DsRed (tdTomato) antibody (Ablab), 1:500; anti-α-Tubulin antibody (Sigma-Aldrich), 1:10,000 dilution.
Paraffin embedded tissue sections of TA muscles, inguinal white fat depots (igWAT) and epididymal white fat depots (epiWAT) were deparaffinized in CitriSolv. After rehydration, tissue sections were boiled in 0.01M citrate buffer (1.8 mM citric acid, 8.2 mM sodium citrate, pH 6.0) for 16 minutes. Endogenous peroxidase activity was neutralized by 0.3% H2O2 in 70% methanol Anti-Ucp1 antibody (Calbiochem) was 1:200 diluted and incubated with tissues sections overnight. IHC signals were developed by Vectastain ABC kit. […]

The next data set in a line: IPGTT glucose tolerance. It is filed as in vivo, mouse. Particulars: both diet groups. An excerpt: (B) Retarded body weight increase over a 16-week body weight monitoring time course in mice received miR-133 ASO treatment during TA muscle regeneration (n=6 per treatment group per diet group). […] Values of total energy expenditure were plotted without normalization to lean body mass. (D) Physical activities measured within light and dark cycles during indirect calorimetry (C) reveal increased physical activities within the dark cycle for miR-133 ASO treated mice (fed the RD). Physical activities are presented as arithmetic means of beam breaking events at X-, Y- and Z-dimensions. (E) IPGTT tests for C57BL/6 mice received either control- or miR-133 ASO treatment (fed the RD; n=6 per group). Error bars: S.E.M., asterisk: significant pair-wise comparison by t-test, *: p≦0.05, **: p≦0.01, ***: p≦0.001, n.s.: not significant.
This discrepancy may be related to the abnormally low respiratory exchange ratio (˜0.76) in the control mice fed with HFD (FIG. 7D), which indicates an increased proportion of lipid oxidation in the control mice. […] In addition, miR-133 ASO treatment also led to much improved glucose tolerance in both diet groups (FIGS. 6E & 7F).

In the next data set the test system is let-7a microRNA. Put plainly: RT-qPCR of let-7a expression after intramuscular ASO injection (specificity). It is filed as in vivo, mouse. Particulars: intramuscular administration.
Description: as §1, §2

Where [1] appears, read: regenerating TA muscle cross-sections.

As for “*mA*mUmAmGmCmUmGmGmUmUmGmAmAmGmGmGmGmAmC*mC*mA*mA*mAChl [miR-133 ASO]”, in the data set with Ucp3, the “Ucp3 protein by immunoblotting” value is “largely unaffected”. For the same substance, the “expression of IL-1β and TNF-α between control- and treated muscles” value in the data set on IL-1β and TNF-α is listed as “no difference”. In addition, in the data set with Ucp1 (3 months after a single injection in regenerating muscle), the “repression of miR-133a/b and induction of Ucp1 mRNA, duration” value was “long-lasting effects”. Also, in the data set with Ucp1 (C57BL/6 mice, regular diet or high fat diet, 2 months after treatment), the “Ucp1 protein expression in treated muscles by immunoblotting” value is listed as “ectopically induced”. Also, the “Ucp1 mRNA within injected regenerating muscle” value in the data set with Ucp1 (cardiotoxin-injured TA muscle, one month) is recorded as “increased”. Moreover, the “Ucp1 mRNA level in treated TA muscle” value in the data set on Ucp1 (frozen injury induced muscle regeneration) is reported as “similarly induced”. In the data set with Ucp1 (regenerated TA muscles, Pax7-CreER, R26R-tdTomato mice), the “Ucp1 protein by immunoblotting” value is on record as “specifically detected”. In addition, the “numbers of interstitial cells and ORO-stained cells between regenerating myofibers” value in the data set with Ucp1 (regenerating TA muscle) was “markedly increased”. In addition, in the data set on Ucp1 (setting [1]), the “Prdm16pos cells per cross-section (average)” value came out at 31.6 per cross-section and the “Ucp1pos brown adipocytes per section (average)” value is listed as 15.6 per section. Moreover, in the data set with Ucp1 (tdTomato lineage tracing), the “share of Prdm16pos cells derived from satellite cells” value amounted to 76.8% and the “share of Ucp1pos brown adipocytes derived from satellite cells” value is given as 83.3%. Further, in the data set “IPGTT glucose tolerance”, the glucose tolerance result is reported as “much improved”. Besides, the “let-7a microRNA expression” value in the data set with let-7a microRNA was “no effect”.

(Values after US9018188B2, “MicroRNA inhibitors” (Ottawa Hospital Research Institute, priority 2011, dated 2015).)
